Assay results from patent US9320276B2, “N-hetarylmethyl pyrazolylcarboxamides” (BAYER INTELLECTUAL PROPERTY GMBH, priority 2010, dated 2016).

test: logP by HPLC on reversed-phase column (EEC Directive 79/831 Annex V.A8); format: physicochemical; conditions: HPLC on reversed-phase column (C 18), 40° C., 0.1% aqueous formic acid and acetonitrile, linear gradient 10% to 90% acetonitrile
Description: In table 1, the logP values were determined in accordance with EEC Directive 79/831 Annex V.A8 by HPLC (High Performance Liquid Chromatography) on a reversed-phase column (C 18), using the method described below: Temperature: 40° C.; Mobile phases: 0.1% aqueous formic acid and acetonitrile; linear gradient from 10% acetonitrile to 90% acetonitrile. Calibration was carried out using unbranched alkan-2-ones (comprising 3 to 16 carbon atoms) with known logP values (determination of the logP values by the retention times using linear interpolation between two successive alkanones). lambda-max-values were determined using UV-spectra from 200 nm to 400 nm and the peak values of the chromatographic signals.

| logP | SMILES |
| --- | --- |
| 2.49 | CC(C)N(Cc1ccc(Cl)nc1)C(=O)c1c(C(F)F)nn(C)c1Cl [Example 64] |
| 2.45 | Cn1nc(C(F)F)c(C(=O)N(Cc2ccco2)C2CC2)c1Cl [Example 4] |
| 2.32 | CN(Cc1ccc2nsnc2c1)C(=O)c1c(C(F)F)nn(C)c1Cl [Example 99] |
| 3.35 | Cn1nc(C(F)F)c(C(=O)N(Cc2ccco2)C2CCCCC2)c1Cl [Example 7] |
| 1.90 | CN(Cc1cncc(Cl)c1)C(=O)c1c(C(F)F)nn(C)c1Cl [Example 55] |
| 1.91 | CN(Cc1ccnc(Cl)c1)C(=O)c1c(C(F)F)nn(C)c1Cl [Example 53] |
| 3.63 | CN(Cc1sc2ccccc2c1Cl)C(=O)c1c(C(F)F)nn(C)c1Cl [Example 141] |
| 2.02 | CN(Cc1ccco1)C(=O)c1c(C(F)F)nn(C)c1Cl [Example 6] |
| 1.84 | CN(Cc1ccc(Cl)nc1)C(=O)c1c(C(F)F)nn(C)c1F [Example 63] |
| 2.18 | Cc1ccoc1CN(C)C(=O)c1c(C(F)F)nn(C)c1F [Example 22] |
| 1.87 | CN(Cc1ccco1)C(=O)c1c(C(F)F)nn(C)c1F [Example 1] |
| 2.71 | CN(Cc1nc(-c2ccccc2)no1)C(=O)c1c(C(F)F)nn(C)c1Cl [Example 113] |
| 2.59 | CC(C)Oc1ccc(CN(C)C(=O)c2c(C(F)F)nn(C)c2Cl)cn1 [Example 101] |
| 1.87 | CN(Cc1cccnc1Cl)C(=O)c1c(C(F)F)nn(C)c1Cl [Example 51] |

The next lines start with the molecule.

| SMILES | logP |
| --- | --- |
| Cc1occc1C1(NC(=O)c2c(C(F)F)nn(C)c2F)CCCC1 [Example 24] | 2.92 |
| CCN(Cc1ccc(Cl)nc1)C(=O)c1c(C(F)F)nn(C)c1Cl [Example 60] | 2.23 |
| Cc1ccsc1CN(C(=O)c1c(C(F)F)nn(C)c1F)C1CCCC1 [Example 38] | 3.46 |
| Cn1nc(C(F)F)c(C(=O)NC2(c3cccs3)CCCC2)c1Cl [Example 33] | 3.13 |
| Cn1nc(C(F)F)c(C(=O)N(Cc2sccc2Br)C2CC2)c1Cl [Example 136] | 3.29 |
| CN(Cc1cc(-c2ccc(Cl)cc2)no1)C(=O)c1c(C(F)F)nn(C)c1F [Example 152] | 3.04 |
| Cn1nc(C(F)F)c(C(=O)NC2(c3ccco3)CCCC2)c1F [Example 12] | 2.70 |
| Cn1nc(C(F)F)c(C(=O)N(Cc2cnc(Cl)cc2Cl)C2CC2)c1Cl [Example 119] | 2.90 |
| Cn1ccc(C2(NC(=O)c3c(C(F)F)nn(C)c3Cl)CCCC2)n1 [Example 25] | 1.93 |
| CC(C)C(c1cncnc1)N(C)C(=O)c1c(C(F)F)nn(C)c1Cl (stereo not shown) [Example 19] | 1.76 |
| Cn1nc(C(F)F)c(C(=O)NC2(c3cccnc3)CCCC2)c1Cl [Example 17] | 0.96 |
| Cn1nc(C(F)F)c(C(=O)N(Cc2ccc(Cl)nc2)C2CC2)c1Cl [Example 66] | 2.39 |
| CCN(Cc1nonc1C)C(=O)c1c(C(F)F)nn(C)c1Cl [Example 27] | 2.20 |
| Cn1nc(C(F)F)c(C(=O)NC2(c3ccco3)CCCC2)c1Cl [Example 11] | 2.86 |
| Cn1ccc(C2(NC(=O)c3c(C(F)F)nn(C)c3F)CCCC2)n1 [Example 26] | 2.25 |
| Cn1nc(C(F)F)c(C(=O)NC2(c3cccnc3)CCCC2)c1F [Example 18] | 0.84 |
| Cn1nc(C(F)F)c(C(=O)N(Cc2cccnc2)CC(F)(F)F)c1F [Example 14] | 1.20 |
| Cn1nc(C(F)F)c(C(=O)N(Cc2sccc2Br)C2CC2)c1F [Example 135] | 3.11 |
| CC(C)C(c1cncnc1)N(C)C(=O)c1c(C(F)F)nn(C)c1F (stereo not shown) [Example 20] | 1.65 |
| CC(C)N(Cc1cnn(-c2ccc(Cl)cc2)c1)C(=O)c1c(C(F)F)nn(C)c1F [Example 150] | 3.25 |
| Cn1nc(C(F)F)c(C(=O)N(Cc2cccnc2)CC(F)(F)F)c1Cl [Example 13] | 1.37 |
| Cn1nc(C(F)F)c(C(=O)NCc2ccc(Cl)nc2)c1Cl [Example 69] | 1.82 |
| CCn1cc(CNC(=O)c2c(C(F)F)nn(C)c2F)c(C)n1 [Example 47] | 1.31 |
